Measured values: the NIST ThermoML archive (doi:10.1021/je8002699)
± gives the expanded uncertainty stated by the source.

Assays:
[1] = refractive index (Na D-line) (dimensionless); xn = mol fraction of the nth substance listed; conditions: 101 kPa, Liquid
[2] = xn = mol fraction of the nth substance listed; conditions: for mass density / speed of sound / viscosity: 101 kPa, Liquid

CC(=O)CC(C)(C)O [4-hydroxy-4-methylpentan-2-one] + O=[N+]([O-])c1ccccc1
Conditions | mass density, [2] [kg/m3] | refractive index, [1] | speed of sound, [2] [m/s] | surface tension liquid-gas, [2] [mN/m] | viscosity, [2] [mPa·s]
303.15 K, x1 = 0.1248 | 1163.9 ± 9.9 | 1.5377 ± 0.005 | 1395 ± 6 | 39.8 ± 1.1 | 2.022 ± 0.093
303.15 K, x1 = 0.2389 | 1130.2 ± 9.6 | 1.5245 ± 0.005 | 1378 ± 6 | 38.7 ± 1.1 | 2.161 ± 0.099
303.15 K, x1 = 0.3446 | 1102.1 ± 9.4 | 1.5113 ± 0.005 | 1363 ± 6 | 37.5 ± 1 | 2.282 ± 0.1
303.15 K, x1 = 0.4921 | 1062 ± 9 | 1.4931 ± 0.005 | 1341 ± 6 | 35.9 ± 1 | 2.45 ± 0.11
303.15 K, x1 = 0.5853 | 1038 ± 8.8 | 1.4822 ± 0.005 | 1327 ± 6 | 34.7 ± 0.97 | 2.562 ± 0.12
303.15 K, x1 = 0.6427 | 1023 ± 8.7 | 1.474 ± 0.005 | 1317 ± 6 | 34 ± 0.96 | 2.624 ± 0.12
303.15 K, x1 = 0.7532 | 995.6 ± 8.4 | 1.4601 ± 0.005 | 1298 ± 6 | 32.7 ± 0.93 | 2.735 ± 0.12
303.15 K, x1 = 0.8226 | 979.1 ± 8.3 | 1.45 ± 0.005 | 1287 ± 6 | 31.7 ± 0.9 | 2.791 ± 0.13
303.15 K, x1 = 0.9349 | – | 1.43 ± 0.005 | 1263 ± 6 | 29.5 ± 0.85 | 2.889 ± 0.13
303.15 K, x1 = 1 | 936 ± 7.9 | 1.4239 ± 0.005 | 1256 ± 6 | 29.44 ± 0.85 | 2.89 ± 0.13
313.15 K, x1 = 0.1248 | 1157.7 ± 11 | 1.5351 ± 0.005 | 1304 ± 6 | 37.45 ± 1 | 1.752 ± 0.082
313.15 K, x1 = 0.2389 | 1120.9 ± 10 | 1.521 ± 0.005 | 1290 ± 6 | 36.6 ± 1 | 1.931 ± 0.089
313.15 K, x1 = 0.3446 | 1088.8 ± 10 | 1.508 ± 0.005 | 1277 ± 6 | 35.6 ± 0.99 | 2.137 ± 0.098
313.15 K, x1 = 0.4921 | 1046.3 ± 9.6 | 1.4897 ± 0.005 | 1258 ± 6 | 34.3 ± 0.96 | 2.412 ± 0.11
313.15 K, x1 = 0.5853 | 1019.9 ± 9.4 | 1.4782 ± 0.005 | 1244 ± 6 | 33.4 ± 0.94 | 2.541 ± 0.12
313.15 K, x1 = 0.6427 | 1004.4 ± 9.2 | 1.4706 ± 0.005 | 1236 ± 6 | 32.8 ± 0.93 | 2.661 ± 0.12
313.15 K, x1 = 0.7532 | 975.5 ± 8.9 | 1.4548 ± 0.005 | 1221 ± 5 | 31.7 ± 0.9 | 2.741 ± 0.12
313.15 K, x1 = 0.8226 | 957.8 ± 8.7 | 1.4456 ± 0.005 | 1211 ± 5 | 31 ± 0.89 | 2.764 ± 0.12
313.15 K, x1 = 0.9349 | – | 1.4261 ± 0.005 | 1190 ± 5 | 29.4 ± 0.85 | 2.79 ± 0.13
313.15 K, x1 = 1 | 912 ± 8.3 | 1.4198 ± 0.005 | 1183 ± 5 | 28.92 ± 0.84 | 2.791 ± 0.13
323.15 K, x1 = 0.1248 | 1146.5 ± 11 | 1.5304 ± 0.005 | 1212 ± 5 | 35.8 ± 0.99 | 1.658 ± 0.078
323.15 K, x1 = 0.2389 | 1109.6 ± 11 | 1.5268 ± 0.01 | 1201 ± 5 | 35 ± 0.97 | 1.843 ± 0.086
323.15 K, x1 = 0.3446 | 1077.5 ± 11 | 1.5048 ± 0.005 | 1192 ± 5 | 34.3 ± 0.96 | 2.018 ± 0.093
323.15 K, x1 = 0.4921 | 1035 ± 10 | 1.486 ± 0.005 | 1178 ± 5 | 33.11 ± 0.93 | 2.32 ± 0.11
323.15 K, x1 = 0.5853 | 999.9 ± 9.9 | 1.475 ± 0.005 | 1169 ± 5 | 32.3 ± 0.91 | 2.492 ± 0.11
323.15 K, x1 = 0.6427 | 993.1 ± 9.8 | 1.4675 ± 0.005 | 1163 ± 5 | 31.8 ± 0.9 | 2.579 ± 0.12
323.15 K, x1 = 0.7532 | 964.3 ± 9.5 | 1.4503 ± 0.005 | 1152 ± 5 | – | 2.651 ± 0.12
323.15 K, x1 = 0.8226 | 946.6 ± 9.3 | 1.4412 ± 0.005 | 1144 ± 5 | 30.1 ± 0.87 | 2.661 ± 0.12
323.15 K, x1 = 0.9349 | 910 ± 8.9 | 1.4215 ± 0.005 | 1128 ± 5 | 28.8 ± 0.84 | 2.67 ± 0.12
323.15 K, x1 = 1 | 901 ± 8.9 | 1.4151 ± 0.005 | 1121 ± 5 | 28.12 ± 0.82 | 2.67 ± 0.12
